Laboratory results reported in publication PMC5923171, “Novel Zinc-Attenuating Compounds as Potent Broad-Spectrum Antifungal Agents with In Vitro and In Vivo Efficacy” (Antimicrobial Agents and Chemotherapy, 2018).
In brackets after ≈: the same amount, converted by molar mass.

Tests used:
[1] = Fluorescence-based competition assay using FluoZin-3 (compound-Zn2+ dissociation constant); format: binding; settings: FluoZin-3 competition, PBS pH 7.4, room temperature; read-out: Compound-Zn^2+ KD
Experimental: The dissociation constant (Kd) of zinc to zinc-attenuating compounds was determined at room temperature using FluoZin-3 (F24194; […] Testing buffer consisted of PBS (pH 7.4) with 200 nM ZnCl2 and 500 nM FluoZin-3. In a microtiter plate, 98 μl of testing buffer was mixed with 2 μl of compound at a range of concentrations to determine the half-maximal inhibitory concentration (IC50). Testing plates were incubated for 2 min before being read at an excitation wavelength of 485 nm and an emission wavelength of 516 nm with a Fluoroskan Ascent microplate fluorometer (Thermo Fisher Scientific).

[2] = test system: C. albicans; test: Fungal growth recovery after prolonged exposure (MFC); format: cell-based, Candida albicans; settings: for growth recovery after exposure: 5 days of exposure, then compound-free medium (EDTA: during compound incubation, 0.22 to 22 μg/ml)
[3] = test system: C. albicans SC5314; test: Time-kill assay; format: cell-based, Candida albicans; settings: 0.5 μg/ml AMB, 3.6 μg/ml ZAC989, 4.4 μg/ml EDTA, 4.2 μg/ml TPEN; up to 24 h
Experimental: C. albicans SC5314 cells (10^5 CFU/ml) were incubated in 10 ml of RPMI medium at 30°C with gentle agitation (150 rpm) in the presence of EDTA (15 μM), TPEN (10 μM), ZAC989 (10 μM), or AMB (0.5 μM). At the desired time points (0, 3, 5.5, and 24 h), a 100-μl aliquot was removed for each test condition and serially diluted (10-fold) in saline (0.9% NaCl), and 30 μl of each dilution was plated on YPD agar plates. The colony count on each YPD plate was determined after incubation at 30°C for 48 h ([40]). C. albicans cells treated with DMSO (1%, vol/vol) served as a control.

[4] = Human hepatocyte (HepG2) proliferation assay; format: cell-based; settings: human, HepG2 cells, XTT; for EC50 at 24 h: 24 h exposure; for EC50 at 72 h: 72 h exposure
Experimental: In each well of a 96-well tissue culture plate (GR-655180; Grenier), 10,000 human hepatocytes (HepG2) (85011430; […] Sigma]) supplemented with 2 mM L-[…]-020-1B; Biological Industries), 1% nonessential amino acids (XC-[…]/100; Biosera), and 10% fetal bovine serum (BI-04-007-1A; Biological Industries), and plates were incubated overnight at 37°C and 5% CO2. […] The plate was incubated for a further 24 h or 72 h at 37°C and 5% CO2. The medium was then replaced with 100 μl of freshly prepared 2,3-bis-(2-methoxy-4-nitro-5-sulfophenyl)-2H-tetrazolium-5-carboxanilide salt (XTT) sodium salt solution (0.5 mg/ml of XTT; […]; Sigma) in RPMI 1640 ([…]; Sigma-Aldrich) with 3.83 μg/ml of phenazine methosulfate ([…]; Sigma-Aldrich) and incubated 2 to 3 h at 37°C and 5% CO2 ([43]). The color reaction was measured on Victor X5 plate reader (Perkin-Elmer) at OD450, and the half-maximal effective concentration (EC50) was calculated. Tamoxifen (85256; Sigma) was used as a positive-control compound.

[5] = Potentiometric titration, ligand-copper complex formation; format: binding; settings: for copper binding (in words): potentiometric titration with CuSO4
Experimental: (§1) The Zn^2+-binding properties of ZAC307 and ZAC989 were further evaluated using a potentiometric assay, where pH is measured as a function of base (NaOH) added to the compound in either the absence or presence of metal. […] To determine the deprotonation constant, a solution of 1 mM ZAC307 or ZAC989 was titrated with 0.3 M NaOH at constant ionic strength (Fig. 2A and B). In a second run, the same titration was performed in the presence of 0.5 eq of Zn^2+ for ZAC307 and ZAC989. A shift in the pH curve in the presence of the metal (ZAC307, 0.5 eq of Zn^2+ [Fig. 2A]) compared to the absence of the metal (ZAC307 [Fig. 2A]) indicates binding of Zn^2+ to the compound. The measured pH data were analyzed with the Hyperquad program suite, taking into account all relevant equilibrium constants, including also the constants for metal hydroxylation. The analysis provides the pKa values and metal complex stability constants, as well as ligand-metal complex speciation calculation, indicating how many ZAC molecules are involved in coordinating the Zn^2+ ion at different pH values. […] ZAC989 bound copper with the formation constants log β1, log β2, and log β3 of 7.83, 13.37, and 20.62, respectively. The most dominant ZAC989-copper stoichiometry was a 3:1 stoichiometry (Fig. 2E).
(§2) Potentiometric measurements were carried out in DMSO-water (70:30, vol/vol) at 25°C as described previously ([22]). Titrations were performed with a pH meter (Denver Instruments) utilizing a glass electrode with AgCl reference filled with 3.0 M KCl. The electrode was equilibrated in DMSO-water (70:30, vol/vol) for at least 1 h before use. All experiments were performed at a constant ionic strength (0.1 M NaClO4). Three milliliters of a solution containing 1 mM compound was titrated with 0.3 M NaOH by manual additions in 1- to 5-μl increments with magnetic stirring. The metal-ligand binding constants were obtained from titrations of the metal complex solutions prepared in a 1:2 metal-to-ligand ratio. The titration data were refined by the nonlinear least-squares refinement program Hyperquad2013 ([37]) to determine the deprotonation and stability constants.

[6] = Potentiometric titration, ligand-Zn(II) complex formation; format: binding; settings: DMSO-water (70:30, vol/vol), 0.5 eq of Zn^2+
Experimental: as §1, §2

[7] = DMSO-water (70:30, vol/vol), CuSO4

O=C(O)CN(CCN(CC(=O)O)CC(=O)O)CC(=O)O [EDTA]
Kd [1]: < 10 nM | growth recovery after exposure [2]: resumed visible growth after 48 h of compound incubation | time-kill activity (fungistatic or fungicidal) [3]: fungistatic effect within the first 24 h of exposure | EC50 at 24 h [4]: > 28 µg/mL | EC50 at 72 h [4]: > 29 µg/mL

c1ccc(CN(CCN(Cc2ccccn2)Cc2ccccn2)Cc2ccccn2)nc1 [TPEN, N,N,N’,N’-tetrakis(2-pyridylmethyl)-ethylenediamine]
Kd [1]: < 10 nM | growth recovery after exposure [2]: poor recovery | concentration above which exposed cells showed poor recovery ([2]; prolonged exposure): above 2 μg/ml | time-kill activity (fungistatic or fungicidal) [3]: fungistatic effect within the first 24 h of exposure | EC50 at 24 h [4]: 1.6 ± 0.2 µg/mL (≈ 3.77 µM) | EC50 at 72 h [4]: 1.4 ± 0.8 µg/mL (≈ 3.3 µM)

CN(C)c1cc(-n2nc(-c3ccccc3)cc2O)ncn1 [ZAC307, 2-[6-(dimethylamino)pyrimidin-4-yl]-5-phenyl-pyrazol-3-ol]
copper binding (in words) [5]: binds copper | Kd [1]: 71 nM | formation constant log β1 (1:1 ligand-Zn(II) complex) [6]: 7.47 | formation constant log β2 (2:1 ligand-Zn(II) complex) [6]: 13.27 | formation constant log β3 (3:1 ligand-Zn(II) complex) [6]: 18.14 | growth recovery after exposure [2]: resume normal growth | EC50 at 24 h [4]: > 28 µg/mL | EC50 at 72 h [4]: 13.2 ± 0.8 µg/mL (≈ 46.9 µM)

Cc1cc(O)n(-c2cc(N3CC[C@H](Oc4cnccc4C#N)C3)ncn2)n1 [ZAC989, 3-[(3S)-1-[6-(5-hydroxy-3-methyl-pyrazol-1-yl)pyrimidin-4-yl]pyrrolidin-3-yl]oxy-pyridine-4-carbonitrile]
formation constant log β1 (copper) [5, 7]: 7.83 | formation constant log β2 (copper) [5, 7]: 13.37 | formation constant log β3 (copper) [5, 7]: 20.62 | copper binding (in words) [5]: chelates copper | Kd [1]: 13 nM | formation constant log β1 (1:1 ligand-Zn(II) complex) [6]: 7.35 | formation constant log β2 (2:1 ligand-Zn(II) complex) [6]: 14.30 | formation constant log β3 (3:1 ligand-Zn(II) complex) [6]: 19.71 | growth recovery after exposure [2]: resume normal growth | EC50 at 24 h [4]: > 28 µg/mL | EC50 at 72 h [4]: 6.9 ± 0.7 µg/mL (≈ 19 µM)
